pIC50: −log10 of the molar value.
molecular target: SMYD2 (Homo sapiens, UniProt Q9NRG4); experiment: Scintillation Proximity Assay (SPA) for detection of SMYD2 enzymatic inhibition; assay type: biochemical; design: The SMYD2 full length enzyme was produced in-house by expression (with an N-terminal 6× His tag) in E. coli; 6xHis (N); made in house; host or cells: E. coli; details: SMYD2 full length enzyme, p53 Peptide substrate 1.0 μM, 3H-SAM 60 nM; read-out: IC50 [mol/l] (SPA Assay)
From the text: 1.1 Scintillation Proximity Assay (SPA) for Detection of SMYD2 Enzymatic Inhibition
SMYD2 inhibitory activities of the compounds described in the present invention were quantified using a scintillation proximity assay (SPA) which measures methylation by the enzyme of the synthetic, biotinylated peptide Btn-Ahx-[…]—Amid×TFA (Biosyntan) derived from p53 and referred to from here on as “p53 Peptide”. The SMYD2 full length enzyme was produced in-house by expression (with an N-terminal 6× His tag) in E. coli and purification by affinity chromatography on a Ni-NTA Sepharose column followed by a size exclusion chromatography step on a Superdex 200 16/60 column (GE Healthcare).
In a typical assay 11 different concentrations of each compound (0.1 nM, 0.33 nM, 1.1 nM, 3.8 nM, 13 nM, 44 nM, 0.15 μM, 0.51 μM, 1.7 μM, 5.9 μM and 20 μM) were tested in duplicate within the same microtiter plate. To this end, 100-fold concentrated compound solutions (in DMSO) were previously prepared by serial dilution (1:3.4) of 2 mM stocks in a clear low volume 384-well source microliter plate (Greiner Bio-One), from which 50 nl of compound solutions were transferred into a white low volume test microtiter plate from the same supplier. Subsequently, 2.5 μl SMYD2 in aqueous assay buffer [50 mM Tris/HCl pH 9.0 (AppliChem), 1 mM dithiothreitol (DTT, Sigma), 0.01% (w/v) bovine serum albumine (BSA, Sigma), 0.0022% (v/v) Pluronic (Sigma)] were added to the compounds in the test plate to a final enzyme concentration of —typically—3 nM (this parameter was adjusted depending on the activity of the enzyme lot in order to be within the linear dynamic range of the assay). The samples were then incubated for 15 min at 22° C. to allow pre-equilibration of the putative enzyme-inhibitor complexes before the start of the methylation reaction, which was initiated by the addition of 2.5 μl 2-fold concentrated solution (in assay buffer) of titriated S-Adenosyl-L-Methionine (3H-SAM, Perkin Elmer, final concentration: 60 nM) and p53 Peptide substrate (final concentration: 1.0 μM). The resulting mixture (5 μl final volume) was shortly centrifuged (2 min., 1500 rpm) and incubated at 22° C. during 30 min. Thereupon the reaction was stopped by adding 3 μl of Streptavidin PS SPA imaging beads (Perkin Elmer, final concentration of 3.12 μg/μl) and “cold” SAM (AK Scientific, 25 μM final concentration) for non-specific binding reduction. Plates containing the stopped reaction were sealed with transparent adhesive foil (Perkin Elmer), centrifuged (2 min., 1500 rpm), and further incubated for —at least—1 h at RT (or overnight at 4° C.) in order to allow the SPA signals to develop. Subsequently, the amount of product was evaluated by measuring the energy transfer from the β-particles emitted by the 3H-labeled substrate to the Europium scintillator co-polymerized in the polystyrene matrix of the PS imaging beads, using the standard settings for this purpose of a Viewlux (Perkin-Elmer) CCD plate imaging device (emission filter 613/55 (IFP). The resulting scintillation counts were taken as indicator for the amount of methylated peptide per well. The data were normalised using two sets of control wells (typically 16 each) for high−(=enzyme reaction with DMSO instead of test compound=0% =Minimum inhibition) and low−(=all assay components without enzyme=100% =Maximum inhibition) SMYD2 activity. IC50 values were calculated by fitting the normalized inhibition data to a 4-parameter logistic equation using the “Screener” analysis software from Genedata.

Sequence of SMYD2 (Q9NRG4 whole entry): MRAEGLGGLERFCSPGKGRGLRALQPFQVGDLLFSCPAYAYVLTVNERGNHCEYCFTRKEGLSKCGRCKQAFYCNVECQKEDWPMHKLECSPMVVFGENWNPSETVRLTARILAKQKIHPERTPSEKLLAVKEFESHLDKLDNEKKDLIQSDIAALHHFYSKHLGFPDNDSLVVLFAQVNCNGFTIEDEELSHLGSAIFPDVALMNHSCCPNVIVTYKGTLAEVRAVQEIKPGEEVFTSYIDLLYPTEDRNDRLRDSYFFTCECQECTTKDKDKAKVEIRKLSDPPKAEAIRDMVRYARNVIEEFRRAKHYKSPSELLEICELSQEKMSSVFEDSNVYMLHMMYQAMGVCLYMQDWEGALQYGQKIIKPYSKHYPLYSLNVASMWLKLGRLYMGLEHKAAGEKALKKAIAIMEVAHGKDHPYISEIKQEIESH

pIC50	Compound
6.57	CCN(C(=O)[C@H]1CCCN1)C1CN(/C(=N\C#N)Nc2cccc(OC(F)F)c2F)N=C1c1ccc(Cl)c(Cl)c1 (single isomer, unassigned) [Example 13.2, N-[1-{N′-Cyano-N-[3-(difluoromethoxy)-2-fluorophenyl]carbamimidoyl}-3-(3,4-dichlorophenyl)-4,5-dihydro-1H-pyrazol-4-yl]-N-ethyl-D-prolinamide]
7.68	CCN(C(=O)[C@H]1CCCN1)C1CN(/C(=N\C#N)Nc2cccc(OC(F)(F)F)c2)N=C1c1ccc(Cl)c(Cl)c1 (single isomer, unassigned) [Example 17.1, N-[1-{N′-Cyano-N-[3-(trifluoromethoxy)phenyl]carbamimidoyl}-3-(3,4-dichlorophenyl)-4,5-dihydro-1H-pyrazol-4-yl]-N-ethyl-D-prolinamide]
5.86	CCN(C(=O)[C@H]1CCCN1)C1CN(/C(=N\C#N)Nc2cccc(OC(F)(F)F)c2)N=C1c1ccc(Cl)c(Cl)c1 (single isomer, unassigned) [Example 17.2, N-[1-{N′-Cyano-N-[3-(trifluoromethoxy)phenyl]carbamimidoyl}-3-(3,4-dichlorophenyl)-4,5-dihydro-1H-pyrazol-4-yl]-N-ethyl-D-prolinamide]
6.53	CCN(C(=O)[C@H]1CCCN1)C1CN(/C(=N\C#N)Nc2ccc(F)c(OC(F)(F)F)c2)N=C1c1ccc(Cl)c(Cl)c1 (single isomer, unassigned) [Example 22.2, N-[1-{N′-Cyano-N-[4-fluoro-3-(trifluoromethoxy)phenyl]carbamimidoyl}-3-(3,4-dichlorophenyl)-4,5-dihydro-1H-pyrazol-4-yl]-N-ethyl-D-prolinamide]
5.40	CCN(C(=O)[C@H]1CCCN1)C1CN(/C(=N\C#N)Nc2cc(F)cc(OC(F)(F)F)c2)N=C1c1ccc(Cl)c(Cl)c1 (single isomer, unassigned) [Example 24.2, N-[1-{N′-Cyano-N-[3-fluoro-5-(trifluoromethoxy)phenyl]carbamimidoyl}-3-(3,4-diehlorophenyl)-4,5-dihydro-1H-pyrazol-4-yl]-N-ethyl-D-prolinamide]
6.61	CCN(C(=O)[C@H]1C[C@@H](F)CN1)C1CN(/C(=N\C#N)Nc2cc(F)cc(OC(F)(F)F)c2)N=C1c1ccc(Cl)c(Cl)c1 (single isomer, unassigned) [Example 25.1]
< 4.70	CCN(C(=O)[C@H]1C[C@@H](F)CN1)C1CN(/C(=N\C#N)Nc2cc(F)cc(OC(F)(F)F)c2)N=C1c1ccc(Cl)c(Cl)c1 (single isomer, unassigned) [Example 25.2]
7.26	CCN(C(=O)[C@H]1CCCN1)C1CN(/C(=N\C#N)Nc2cc(C(F)(F)F)ccc2OC(F)(F)F)N=C1c1ccc(Cl)c(Cl)c1 (single isomer, unassigned) [Example 30.1, N-[1-{N′-Cyano-N-[2-(trifluoromethoxy)-5-(trifluoromethyl)phenyl]carbamimidoyl}-3-(3,4-dichlorophenyl)-4,5-dihydro-1H-pyrazol-4-yl]-N-ethyl-D-prolinamide]
5.81	CCN(C(=O)[C@H]1CCCN1)C1CN(/C(=N\C#N)Nc2cc(C(F)(F)F)ccc2OC(F)(F)F)N=C1c1ccc(Cl)c(Cl)c1 (single isomer, unassigned) [Example 30.2, N-[1-{N′-Cyano-N-[2-(trifluoromethoxy)-5-(trifluoromethyl)phenyl]carbamimidoyl}-3-(3,4-dichlorophenyl)-4,5-dihydro-1H-pyrazol-4-yl]-N-ethyl-D-prolinamide]
7.47	CCN(C(=O)[C@H]1CCCN1)C1CN(/C(=N\C#N)Nc2cccc(CC(F)(F)F)c2)N=C1c1ccc(Cl)c(Cl)c1 (single isomer, unassigned) [Example 31.1, N-[1-{N′-Cyano-N-[3-(2,2,2-trifluoroethyl)phenyl]carbamimidoyl}-3-(3,4-dichlorophenyl)-4,5-dihydro-1H-pyrazol-4-yl]-N-ethyl-D-prolinamide]
6.68	CCN(C(=O)[C@H]1CCCN1)C1CN(/C(=N\C#N)Nc2cccc(CC(F)(F)F)c2)N=C1c1ccc(Cl)c(Cl)c1 (single isomer, unassigned) [Example 31.2, N-[1-{N′-Cyano-N-[3-(2,2,2-trifluoroethyl)phenyl]carbamimidoyl}-3-(3,4-dichlorophenyl)-4,5-dihydro-1H-pyrazol-4-yl]-N-ethyl-D-prolinamide]
6.52	CCN(C(=O)[C@H]1CCN1)C1CN(/C(=N\C#N)Nc2cccc(OC(F)F)c2)N=C1c1ccc(Cl)c(C)c1 (single isomer, unassigned) [Example 36.2]
< 4.70	CCN(C(=O)[C@H]1CCCN1)C1CN(/C(=N\C#N)Nc2cccc(OC(F)F)c2)N=C1c1ccc(Cl)c(C)c1 (single isomer, unassigned) [Example 37.2, N-[3-(4-Chloro-3-methylphenyl)-1-{N′-cyano-N-[3-(difluoromethoxy)phenyl]carbamimidoyl}-4,5-dihydro-1H-pyrazol-4-yl]-N-ethyl-D-prolinamide]
~4.70	CCN(C(=O)[C@H]1C[C@@H](F)CN1)C1CN(/C(=N\C#N)Nc2cccc(OC(F)F)c2)N=C1c1ccc(Cl)c(C)c1 (single isomer, unassigned) [Example 38.2]
7.49	CCN(C(=O)[C@H]1C[C@@H](O)CN1)C1CN(/C(=N\C#N)Nc2cccc(OC(F)F)c2)N=C1c1ccc(Cl)c(C)c1 (single isomer, unassigned) [Example 39.1]
5.79	CCN(C(=O)[C@H]1C[C@@H](O)CN1)C1CN(/C(=N\C#N)Nc2cccc(OC(F)F)c2)N=C1c1ccc(Cl)c(C)c1 (single isomer, unassigned) [Example 39.2]

Compound	pIC50
(2R)-N-[3-(4-chlaro-3-methylphenyl)-1-{N′-cyano-N-[3-(difluoromethoxy)phenyl]carbamimidoyl}-4,5-dihydro-1H-pyrazol-4-yl]-N-ethylpiperidine-2-carboxamide [Example 46]	5.82

Reference: patent publication US20180099937A1, “NOVEL ARYL-CYANOGUANIDINE COMPOUNDS” (Bayer Pharma Aktiengesellschaft, priority 2015, published 2018)
